Source: patent US12479830B2, “Homopiperazinyl and homopiperidinyl quinazolin-4(3H)-one derivatives having multimodal activity against pain” (ESTEVE PHARMACEUTICALS, S.A., priority 2019, dated 2025)

Legend:
[1] = target: Human α2δ-1 subunit of Cav2.2 calcium channel (Homo sapiens, UniProt P54289); assay: Human α2δ-1 subunit of Cav2.2 calcium channel assay ([3H]-gabapentin binding); conditions: binding to the α2δ-1 subunit of voltage-gated calcium channels, expressed as Ki class; + also covers inhibition between 1% and 50%
Procedure, shortened: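 Affinity (Ki, five concentrations) or % inhibition at 1 or 10 μM, from displacement of 15 nM [3H]-gabapentin on human α2δ-1 membranes. Incubation 60 min, 27° C., Hepes-KOH 10 mM pH 7.4; 10 μM pregabalin defined non-specific binding; bound radioactivity counted after GF/C filtration.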

Human σ1 receptor = target: T1, Human σ1 receptor (Homo sapiens, UniProt Q99720); assay: Human σ1 receptor radioligand assay ([3H](+)-pentazocine binding); conditions: binding to the σ1 receptor, expressed as Ki class; + also covers inhibition between 1% and 50%
T1 construct: expressed in transfected cells; host or cells: HEK-293
Procedure, shortened: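 Ki was derived from five test concentrations, or % inhibition was measured at a single 1 or 10 μM dose, against 5 nM [3H](+)-pentazocine. Incubation was 120 min at 37° C in 50 mM Tris-HCl pH 8 with 7 μg HEK-293 membranes, and 10 μM haloperidol set non-specific binding. Bound radioactivity was counted after filtration.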

T1 sequence (Q99720 whole entry): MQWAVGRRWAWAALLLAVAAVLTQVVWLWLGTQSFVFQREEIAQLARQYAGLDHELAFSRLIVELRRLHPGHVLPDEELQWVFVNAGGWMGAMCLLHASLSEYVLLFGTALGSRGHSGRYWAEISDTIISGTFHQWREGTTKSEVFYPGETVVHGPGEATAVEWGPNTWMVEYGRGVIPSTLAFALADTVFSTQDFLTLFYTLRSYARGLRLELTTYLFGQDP
Human α2δ-1 subunit of Cav2.2 calcium channel, sequence (P54289 25-1103): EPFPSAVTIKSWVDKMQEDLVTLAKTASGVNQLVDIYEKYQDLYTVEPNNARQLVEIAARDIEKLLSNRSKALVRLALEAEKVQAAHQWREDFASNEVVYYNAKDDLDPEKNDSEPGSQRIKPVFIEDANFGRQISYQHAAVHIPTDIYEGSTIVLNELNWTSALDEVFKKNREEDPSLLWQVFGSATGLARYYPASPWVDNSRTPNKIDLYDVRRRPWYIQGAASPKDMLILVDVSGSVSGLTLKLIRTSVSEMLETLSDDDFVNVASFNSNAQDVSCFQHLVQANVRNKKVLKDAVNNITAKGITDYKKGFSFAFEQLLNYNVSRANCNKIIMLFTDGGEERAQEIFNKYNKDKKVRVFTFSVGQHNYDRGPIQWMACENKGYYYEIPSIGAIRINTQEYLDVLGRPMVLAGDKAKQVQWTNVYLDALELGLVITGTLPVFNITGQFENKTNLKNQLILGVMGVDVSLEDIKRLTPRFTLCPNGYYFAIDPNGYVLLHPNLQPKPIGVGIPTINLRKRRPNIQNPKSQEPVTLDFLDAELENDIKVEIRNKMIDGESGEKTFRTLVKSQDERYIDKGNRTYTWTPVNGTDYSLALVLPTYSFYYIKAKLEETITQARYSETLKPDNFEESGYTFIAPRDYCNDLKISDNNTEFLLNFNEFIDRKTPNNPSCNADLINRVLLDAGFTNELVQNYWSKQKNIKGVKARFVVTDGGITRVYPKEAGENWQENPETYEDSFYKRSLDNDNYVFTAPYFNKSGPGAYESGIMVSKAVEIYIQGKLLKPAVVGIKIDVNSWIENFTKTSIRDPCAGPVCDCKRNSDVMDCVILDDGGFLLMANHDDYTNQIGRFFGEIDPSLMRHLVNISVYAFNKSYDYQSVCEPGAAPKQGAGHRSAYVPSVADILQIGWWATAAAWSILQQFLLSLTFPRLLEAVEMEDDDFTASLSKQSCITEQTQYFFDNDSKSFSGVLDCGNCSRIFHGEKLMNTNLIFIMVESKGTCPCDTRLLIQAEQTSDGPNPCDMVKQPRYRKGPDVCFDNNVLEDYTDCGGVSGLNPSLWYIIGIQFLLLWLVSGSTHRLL

| Ki [1] [nM] | Ki (Human σ1 receptor) [nM] | Compound |
| --- | --- | --- |
| 500 to 5000 | > 1000 | CCC[C@H](c1nc2cc(F)c(OC)cc2c(=O)n1CC)N1CCNC[C@H](C)C1 [Example 244, 3-ethyl-7-fluoro-6-methoxy-2-((R)-1-((S)-6-methyl-1,4-diazepan-1-yl)butyl)quinazolin-4(3H)-one] |
| > 5000 | > 1000 | CCC[C@H](c1nc2ccc(F)c(F)c2c(=O)n1CC)N1CCN[C@H](C)CC1 [Example 239, 3-ethyl-5,6-difluoro-2-((R)-1-((R)-5-methyl-1,4-diazepan-1-yl)butyl)quinazolin-4(3H)-one] |
| 500 to 5000 | < 500 | CCCC(c1nc2ccc(F)cc2c(=O)n1CC)C1CCCN(CC)CC1 (centres unmarked) [Example 268, 3-ethyl-2-(1-(1-ethylazepan-4-yl)butyl)-6-fluoroquinazolin-4(3H)-one] |
| < 500 | > 1000 | CCC[C@H](c1nc2cc(F)c(OC)cc2c(=O)n1CC)N1CCN(C)C[C@@H](C)C1 [Example 237, 2-((R)-1-((R)-4,6-dimethyl-1,4-diazepan-1-yl)butyl)-3-ethyl-7-fluoro-6-methoxyquinazolin-4(3H)-one] |
| < 500 | < 500 | CCC[C@H](c1nc2ccc(F)cc2c(=O)n1CC1CC1)N1CCCN(CC)CC1 [Example 218, (R)-3-(cyclopropylmethyl)-2-(1-(4-ethyl-1,4-diazepan-1-yl)butyl)-6-fluoroquinazolin-4(3H)-one] |
| > 5000 | > 1000 | CCC[C@@H](c1nc2ccc(Br)cc2c(=O)n1CC)N1CC[C@H](C)N(C)CC1 [Example 263] |
| < 500 | > 1000 | CCC[C@H](c1nc2c(F)cccc2c(=O)n1CC)N1CCCN(C)CC1 [Example 248, (R)-3-ethyl-8-fluoro-2-(1-(4-methyl-1,4-diazepan-1-yl)butyl)quinazolin-4(3H)-one] |
| < 500 | < 500 | CCC[C@H](c1nc2ccc(F)cc2c(=O)n1Cc1ccoc1)N1CCCN(C)CC1 [Example 227] |
| 500 to 5000 | < 500 | CCC[C@H](c1nc2c(F)cc(F)cc2c(=O)n1CC)N1CCN[C@@H](C)CC1 [Example 251, 3-ethyl-6,8-difluoro-2-((R)-1-((S)-5-methyl-1,4-diazepan-1-yl)butyl)quinazolin-4(3H)-one] |
| < 500 | < 500 | CCCCn1c([C@@H](CCC)N2CCCN(C)CC2)nc2ccc(F)cc2c1=O [Example 224, (R)-3-butyl-6-fluoro-2-(1-(4-methyl-1,4-diazepan-1-yl)butyl)quinazolin-4(3H)-one] |

Further lines, the compound ahead of its results:

| Compound | Ki [1] [nM] | Ki (Human σ1 receptor) [nM] |
| --- | --- | --- |
| CCC[C@@H](c1nc2ccc(Br)cc2c(=O)n1CC)N1CCN[C@@H](C)CC1 [Example 95, 6-bromo-3-ethyl-2-((S)-1-((S)-5-methyl-1,4-diazepan-1-yl)butyl)quinazolin-4(3H)-one] | > 5000 | > 1000 |
| CCC[C@@H](c1nc2ccc(Br)cc2c(=O)n1CCC)N1CCNC[C@@H](C)C1 [Example 70, 6-bromo-2-((S)-1-((R)-6-methyl-1,4-diazepan-1-yl)butyl)-3-propylquinazolin-4(3H)-one] | > 5000 | > 1000 |
| CCCC(c1nc2ncccc2c(=O)n1CC)N1CCCN(CC)CC1 (centres unmarked) [Example 178, 3-ethyl-2-(1-(4-ethyl-1,4-diazepan-1-yl)butyl)pyrido[2,3-d]pyrimidin-4(3H)-one] | < 500 | > 1000 |
| CCCC(c1nc2ccc(C)cc2c(=O)n1CC)N1CCCN(C)CC1 (centres unmarked) [Example 8, 3-ethyl-6-methyl-2-(1-(4-methyl-1,4-diazepan-1-yl)butyl)quinazolin-4(3H)-one] | < 500 | > 1000 |
| CCC[C@@H](c1nc2cc(F)c(Cl)cc2c(=O)n1CC)N1CCNC[C@@H](C)C1 [Example 121, 6-chloro-3-ethyl-7-fluoro-2-((S)-1-((R)-6-methyl-1,4-diazepan-1-yl)butyl)quinazolin-4 (3H)-one] | > 5000 | > 1000 |
| CCC[C@@H](c1nc2ccncc2c(=O)n1CC)N1CCN(C)C[C@H](C)C1 [Example 170, 2-((S)-1-((S)-4,6-dimethyl-1,4-diazepan-1-yl)butyl)-3-ethylpyrido[4,3-d]pyrimidin-4(3H)-one] | 500 to 5000 | > 1000 |
| CCC[C@H](c1nc2ccc(OC)cc2c(=O)n1CC)N1CCCN(C)CC1 [Example 15, (R)-3-ethyl-6-methoxy-2-(1-(4-methyl-1,4-diazepan-1-yl)butyl)quinazolin-4(3H)-one] | < 500 | > 1000 |
| CCCC(c1nc2ccc(Br)cc2c(=O)n1CCC)N1CCCN(C)CC1 (centres unmarked) [Example 18, 6-bromo-2-(1-(4-methyl-1,4-diazepan-1-yl)butyl)-3-propylquinazolin-4(3H)-one] | < 500 | < 500 |
| CCCC(c1nc2cc(Cl)c(Cl)cc2c(=O)n1CC)N1CCCNCC1 (centres unmarked) [Example 91, 2-(1-(1,4-diazepan-1-yl)butyl)-6,7-dichloro-3-ethylquinazolin-4(3H)-one] | < 500 | 500 to 1000 |
| CCCC(c1nc2c(Cl)cc(F)cc2c(=O)n1CC)N1CCCNCC1 (centres unmarked) [Example 71, 2-(1-(1,4-diazepan-1-yl)butyl)-8-chloro-3-ethyl-6-fluoroquinazolin-4(3H)-one] | > 5000 | > 1000 |
| CCCC(c1nc2ncc(Br)cc2c(=O)n1CC)N1CCCNCC1 (centres unmarked) [Example 177, 2-(1-(1,4-diazepan-1-yl)butyl)-6-bromo-3-ethylpyrido[2,3-d]pyrimidin-4(3H)-one] | < 500 | > 1000 |
| CCCC(c1nc2c(F)cc(Br)cc2c(=O)n1CC)N1CCCN(CC)CC1 (centres unmarked) [Example 57, 6-bromo-3-ethyl-2-(1-(4-ethyl-1,4-diazepan-1-yl)butyl)-8-fluoroquinazolin-4(3H)-one] | 500 to 5000 | 500 to 1000 |
| CCC[C@@H](c1nc2ccc(Br)cc2c(=O)n1CC)N1CCN[C@H](C)CC1 [Example 94, 6-bromo-3-ethyl-2-((S)-1-((R)-5-methyl-1,4-diazepan-1-yl)butyl)quinazolin-4(3H)-one] | 500 to 5000 | > 1000 |
| CCC[C@H](c1nc2ccc(Br)cc2c(=O)n1CC)N1CCNC[C@H](O)C1 [Example 116, 6-bromo-3-ethyl-2-((R)-1-((S)-6-hydroxy-1,4-diazepan-1-yl)butyl)quinazolin-4(3H)-one] | < 500 | > 1000 |
| CCCC(c1nc2cc(Br)c(F)cc2c(=O)n1CC)N1CCCN(CC)CC1 (centres unmarked) [Example 63, 7-bromo-3-ethyl-2-(1-(4-ethyl-1,4-diazepan-1-yl)butyl)-6-fluoroquinazolin-4(3H)-one] | < 500 | < 500 |
| CCC[C@@H](c1nc2ccc(Cl)cc2c(=O)n1CC)N1CCN(C)C[C@H](C)C1 [Example 73, 6-chloro-2-((S)-1-((S)-4,6-dimethyl-1,4-diazepan-1-yl)butyl)-3-ethylquinazolin-4(3H)-one] | > 5000 | > 1000 |
| CCCC(c1nc2c(F)cc(Br)cc2c(=O)n1CC)N1CCCNCC1 (centres unmarked) [Example 55, 2-(1-(1,4-diazepan-1-yl)butyl)-6-bromo-3-ethyl-8-fluoroquinazolin-4(3H)-one] | 500 to 5000 | > 1000 |
| CCC[C@H](c1nc2ccc(Br)cc2c(=O)n1CC)N1CCNC[C@@H](O)C1 [Example 114, 6-bromo-3-ethyl-2-((R)-1-((R)-6-hydroxy-1,4-diazepan-1-yl)butyl)quinazolin-4(3H)-one] | < 500 | > 1000 |
